Patent publication US20100190794A1, “Herbicidally Active Composition” (BASF SE, priority 2007, published 2010)

Key:
Assay in all cases: greenhouse test, pre-emergence treatment
LOLMU = format: in vivo, Lolium multiflorum
Text: (§1) The culture containers used were plastic pots containing loamy sand with approximately 3.0% of humus as substrate. The seeds of the test plants were sown separately for each species.
(§2) For the pre-emergence treatment, the active compounds, suspended or emulsified in water, were applied directly after sowing by means of finely distributing nozzles. The containers were irrigated gently to promote germination and growth and subsequently covered with transparent plastic hoods until the plants had rooted. This cover caused uniform germination of the test plants unless this was adversely affected by the active compounds.
(§3) Depending on the species, the plants were kept at 10-25° C. and 20-35° C., respectively. The test period extended over 2 to 4 weeks. During this time, the plants were tended and their response to the individual treatments was evaluated.
(§4) Evaluation was carried out using a scale from 0 to 100. 100 means no emergence of the plants, or complete destruction of at least the above-ground parts, and 0 means no damage or normal course of growth. Good herbicidal activity is given at values of at least 70, and very good herbicidal activity is given at values of at least 85.
(§5) The respective stated components A and B, and if appropriate, C were formulated as a 5% by weight or 10% by weight strength emulsion concentrate or a commercially available formulation of component B was used and, with addition of the amount of solvent system, introduced into the spray liquor used for applying the active compound. In the examples, the solvent used was water.
(§6) The test period extended over 20 or 21 days. During this time, the plants were tended, and their reactions to the treatment with active compound was monitored.
(§7) What was evaluated was the damage by the chemical compositions using a scale of from 0 to 100%, in comparison to the untreated control plants. 0 means no damage, and 100 means complete destruction of the plants.
(§8) In the examples below, using the method of S. R. Colby (1967) “Calculating synergistic and antagonistic responses of herbicide combinations”, Weeds 15, p. 22 ff., the value E, which is expected if the activity of the individual active compounds is only additive, was calculated.
(§9) where X=percent activity using active compound A at an application rate a; Y=percent activity using active compound B at an application rate b; E=expected activity (in %) by A+B at application rates a+b.
(§10) If the value found in experiments is higher than the value E calculated according to Colby, a synergistic effect is present.

PHACA = format: in vivo, Phalaris canariensis
Text: as §1, §2, §3, §4, §5, §6, §7, §8, §9, §10

ECHCG = format: in vivo, Echinochloa crus-galli; conditions: Use Example 2
Text: as §1, §2, §3, §4, §5, §6, §7, §8, §9, §10

MATIN = format: in vivo, Matricaria inodora; conditions: Use Example 2
Text: as §1, §2, §3, §4, §5, §6, §7, §8, §9, §10

STEME = format: in vivo, Stellaria media; conditions: Use Example 2
Text: as §1, §2, §3, §4, §5, §6, §7, §8, §9, §10

ALOMY = format: in vivo, Alopecurus myosuroides
Text: as §1, §2, §3, §4, §5, §6, §7, §8, §9, §10

PANDI = format: in vivo, Panicum dichotomiflorum; conditions: 62.5 g/ha a.s., Use Example 3
Text: as §1, §2, §3
Evaluation was carried out using a scale from 0 to 100. 100 means no emergence of the plants, or complete destruction of at least the above-ground parts, and 0 means no damage or normal course of growth. Good herbicidal activity is given at values of at least 70, and very good herbicidal activity is given at values of at least 85. […]
as §6
What was evaluated was the damage by the chemical compositions using a scale of from 0 to 100%, in comparison to the untreated control plants. […]
In the examples below, using the method of S. R. Colby (1967) “Calculating synergistic and antagonistic responses of herbicide combinations”, Weeds 15, p. 22 ff., the value E, which is expected if the activity of the individual active compounds is only additive, was calculated. […]
as §10

CCHEC = format: in vivo, Cenchrus echinatus
Text: as §1, §2, §3, §4, §5, §6, §7, §8, §9, §10

BRAPL = format: in vivo, Brachiaria plantaginea
Text: as §1, §2, §3, §4, §5, §6, §7, §8, §9, §10

Compound: CN1C(=O)C(C)(Cc2ccccc2)N(C)C(=O)C1=Cc1ccccc1C#N (stereo not drawn) [Example 20, 2-[5-Benzyl-1,4,5-trimethyl-3,6-dioxopiperazin-2-ylidenemethyl]benzo-nitrile]
- Herbicidal action in % after 20 days against LOLMU (LOLMU; 125 g/ha a.s., Use Example 10): 0%
- Herbicidal action in % after 21 days against LOLMU (LOLMU; 125 g/ha a.s., Use Example 11): 0%
- Herbicidal action in % after 20 days against LOLMU (LOLMU; 125 g/ha a.s., Use Example 13): 0%
- Herbicidal action in % after 20 days against LOLMU (LOLMU; 250 g/ha a.s., Use Example 10): 45%
- Herbicidal action in % after 20 days against LOLMU (LOLMU; 250 g/ha a.s., Use Example 13): 45%
- Herbicidal action in % after 20 days against LOLMU (LOLMU; 500 g/ha a.s., Use Example 1): 70%
- Herbicidal action in % after 20 days against PHACA (PHACA; 250 g/ha a.s., Use Example 4): 80%
- Herbicidal action in % after 20 days against PHACA (PHACA; 500 g/ha a.s., Use Example 1): 80%
- Herbicidal action in % after 20 days against ECHCG (ECHCG; 62.5 g/ha a.s.): 70%
- Herbicidal action in % after 20 days against ECHCG (ECHCG; 125 g/ha a.s.): 95%
- Herbicidal action in % after 20 days against ECHCG (ECHCG; 250 g/ha a.s.): 100%
- Herbicidal action in % after 20 days against MATIN (MATIN; 62.5 g/ha a.s.): 0%
- Herbicidal action in % after 20 days against MATIN (MATIN; 125 g/ha a.s.): 30%
- Herbicidal action in % after 20 days against MATIN (MATIN; 250 g/ha a.s.): 90%
- Herbicidal action in % after 20 days against STEME (STEME; 62.5 g/ha a.s.): 0%
- Herbicidal action in % after 20 days against STEME (STEME; 125 g/ha a.s.): 20%
- Herbicidal action in % after 20 days against STEME (STEME; 250 g/ha a.s.): 50%
- Herbicidal action in % after 20 days against ALOMY (ALOMY; 62.5 g/ha a.s., Use Example 2): 45%
- Herbicidal action in % after 20 days against ALOMY (ALOMY; 125 g/ha a.s., Use Example 2): 55%
- Herbicidal action in % after 20 days against ALOMY (ALOMY; 125 g/ha a.s., Use Example 7): 40%
- Herbicidal action in % after 20 days against ALOMY (ALOMY; 125 g/ha a.s., Use Example 10): 45%
- Herbicidal action in % after 20 days against ALOMY (ALOMY; 125 g/ha a.s., Use Example 13): 45%
- Herbicidal action in % after 20 days against ALOMY (ALOMY; 125 g/ha a.s., Use Example 15): 40%
- Herbicidal action in % after 20 days against ALOMY (ALOMY; 250 g/ha a.s., Use Example 2): 85%
- Herbicidal action in % after 20 days against ALOMY (ALOMY; 250 g/ha a.s., Use Example 4): 85%
- Herbicidal action in % after 20 days against ALOMY (ALOMY; 250 g/ha a.s., Use Example 7): 90%
- Herbicidal action in % after 20 days against ALOMY (ALOMY; 250 g/ha a.s., Use Example 10): 70%
- Herbicidal action in % after 20 days against ALOMY (ALOMY; 250 g/ha a.s., Use Example 13): 70%
- Herbicidal action in % after 20 days against ALOMY (ALOMY; 250 g/ha a.s., Use Example 15): 90%
- Herbicidal action in % after 21 days against PANDI (PANDI): 95%
- Herbicidal action in % after 21 days against CCHEC (CCHEC; 62.5 g/ha a.s., Use Example 3): 20%
- Herbicidal action in % after 20 days against CCHEC (CCHEC; 250 g/ha a.s., Use Example 16): 90%
- Herbicidal action in % after 21 days against BRAPL (BRAPL; 31.25 g/ha a.s., Use Example 8): 20%
- Herbicidal action in % after 20 days against BRAPL (BRAPL; 125 g/ha a.s., Use Example 5): 70%
- Herbicidal action in % after 21 days against BRAPL (BRAPL; 125 g/ha a.s., Use Example 9): 80%
- Herbicidal action in % after 20 days against BRAPL (BRAPL; 125 g/ha a.s., Use Example 12): 55%
